Laboratory results as given in patent publication US20040267283A1, “Method, device and kit for body decoration” (priority 2003, published 2004).
One block for each molecule: values may come before it.

What was measured:
swine skin = experiment: In-vitro skin penetration, hydrogel patches on stretched skin (vertical diffusion cells without cell tops), tape stripping; format: in vitro ADME; settings: for Depth of penetration (Tape strips = TS): skin cleaned with 10% lactic acid
Method: In the second part of the in-vitro skin penetration study, the color application included the use of a hydrogel patch and dye FD&C Red no. 40 and additional dyes, Acid Blue 1 (Blue V) and Indocyanine green, on the swine skin. All chemicals used were analytical grade, obtained from standard supply houses (Sigma, VWR, etc.). […] In these experiments, the depth of penetration was tested for the additional dyes using iontophoresis and/or electroosmosis. Additionally, extensive work was done in order to establish a shaped tattoo that is sharp and has strong color imprint. The experiments were also directed to the effect of the application duration on the tattoo life span. The following properties of the tattoo were measured to determine the effects of iontophoresis on the dyes and pigments' skin penetration: uniformity of the dyeing by observation; penetration depth by tape stripping; and water durability by washing the skin with tap water.
The experiments performed in this second part of the study are described below. Experiments 2.1-2.8 and 2.10-2.14 were conducted on in-vitro swine skin. Experiments 2.9, 2.15, and 2.16 were conducted on in-vivo human skin. FIGS. 6-14 illustrate the body decoration results from the experiments.
This experiment was conducted to determine the dye penetration depth of stretched skin, as would be the case on the subject's body area. In the vertical diffusion cells without the cell tops, the skin was stretched with the cell clamps. To increase the water content of the hydrogel in the patches, the hydrogel was soaked with ddw for 2 minutes. Excess water was then absorbed. Tissue paper heart-shaped pieces were soaked in Blue V solution (100 mg/ml in ddw). The blue heart shapes were placed on the patches' hydrogel and removed a few seconds later, leaving a blue heart-shaped imprint on the hydrogel. The hydrogel patches with the blue heart-shaped imprint were placed on the skin after the skin was cleaned with 10% lactic acid. In the active experiments, the patch wires were connected to a power supply tuned to 0.5 mAmp (0.5 mAmp/cm^2). […] The dye penetration depth was determined by tape stripping.
Blue heart-shaped tattoos were created, as described before in Experiment 6. This experiment was conducted to sharpen the tattoo by soaking the hydrogel in ddw for only few seconds.
In this experiment, the patches' hydrogel content was changed. Instead of KCl, the hydrogel contained NaCl. 100 mg/ml Blue V in ddw with 10% ethanol was used to create the blue heart-shaped imprint. The assay lasted 20 minutes and was done in duplicates. […] The penetration depth was lower with NaCl than KCl in Experiment 2.6.

[1] = reason for choosing the additional dyes; cited from earlier work
human skin = experiment: In-vivo human skin tattoo with imprinted hydrogel patches; settings: Exp 2.16, human study, star shape, 50 mg/ml in ddw, 0.04 mAmp, 60 min, skin cleaned with 10% lactic acid
human = settings: reason for choosing the additional dyes; cited from earlier work
swine ear skin = system: swine ear skin
Method: An in-vitro skin penetration study was conducted to determine which combination of parameters results in the maximum amount of active substance, e.g., color formulation, being delivered into the skin, i.e., the dermis and epidermis, but not through the skin, i.e., beneath the epidermis.
The in-vitro skin penetration study generally included the following test procedure. Decoration ink, as in embodiments of the present invention, was applied on a piece of swine ear skin. The swine skin was excised to full thickness (epidermis and dermis) to an approximate depth of 500-1000 μm. […]
At the end of the exposure period, the entire receptor compartment was drained and the solution reserved for subsequent analysis of the dye(s) and/or pigment(s). […] The depth of penetration was measured by noting the number of tape strippings required to remove the ink. […] The ink was determined quantitatively using customary analytical procedures (e.g., HPLC, UV-Vis spectrum, GC, radiolabeled detection, etc.), as applicable. […]
In these experiments, the enhancing effect of iontophoresis and/or electroosmosis on skin penetration of different dyes was assessed. […] The following properties were measured to determine the enhancing effect of iontophoretic induction on the dyes' skin penetration: uniformity of the dyeing by observation; and penetration depth by tape stripping. […]

Solubility of the dyes [2] = format: physicochemical
Method: (§1) In the first part of the in-vitro skin penetration study, the color application included the use of dyes D&C Green no. 6, FD&C Blue no. 1, FD&C Yellow no. 6, and FD&C Red no. 40. All chemicals used were analytical grade, obtained from standard supply houses (Sigma, VWR, etc.). The dyes were dissolve in ddw and the solution conductivity was measured using a dedicated apparatus. The target conductivity was defined as a minimum of 1 mAmp/cm^3 current at 3 volts. If such conductivity was not attained, the dye concentration and/or the voltage were increased.

mice = settings: cited from earlier work; for Toxicity, LD50: IP in mice
[3] = Solution conductivity of the dyes (current at applied voltage); format: physicochemical
Method: as §1, with “increased. See Table 1 for the solubility and conductivity of the dyes.” for “increased.”

Solubility of the dyes [4] = format: physicochemical; remark: listed apart in the source
rabbit = settings: SC in rabbit; cited from earlier work

Compound: CCN(CC)c1ccc(C(=C2C=CC(=[N+](CC)CC)C=C2)c2ccc(S(=O)(=O)[O-])cc2S(=O)(=O)[O-])cc1.[Na+] [Blue V, Acid Blue 1]
Depth of penetration (Tape strips = TS) (swine skin; Exp 2.13, Active, Anode, hydrogel with NaCl, 100 mg/ml in ddw with 10% ethanol, current = 500 μA/cm^2, 20 min): Anode - TS# 3
Depth of penetration (Tape strips = TS) (swine skin; Exp 2.13, Active, Cathode, hydrogel with NaCl, 100 mg/ml in ddw with 10% ethanol, current = 500 μA/cm^2, 20 min): Cathode - TS# >4
Depth of penetration (Tape strips = TS) (swine skin; Exp 2.13, Passive, hydrogel with NaCl, 100 mg/ml in ddw with 10% ethanol, 20 min): TS# 3
Penetration depth with NaCl hydrogel compared with KCl hydrogel (swine skin; Exp 2.13 compared with Exp 2.6): lower
Depth of penetration (Tape strips = TS) (swine skin; Exp 2.6, Active, Anode, 100 mg/ml in ddw, stretched skin, current = 500 μA/cm^2, 30 min): Anode - TS# 5
Depth of penetration (Tape strips = TS) (swine skin; Exp 2.6, Active, Cathode, 100 mg/ml in ddw, stretched skin, current = 500 μA/cm^2, 30 min): Cathode - TS# >6
Depth of penetration (Tape strips = TS) (swine skin; Exp 2.6, Passive, 100 mg/ml in ddw, stretched skin, 30 min): TS# 4
Depth of penetration (Tape strips = TS) (swine skin; Exp 2.8, Active, Anode, 100 mg/ml in ddw, hydrogel soaked in ddw for only few seconds, current = 500 μA/cm^2): Anode - TS# 4
Depth of penetration (Tape strips = TS) (swine skin; Exp 2.8, Active, Cathode, 100 mg/ml in ddw, hydrogel soaked in ddw for only few seconds, current = 500 μA/cm^2): Cathode - TS# >7
Depth of penetration (Tape strips = TS) (swine skin; Exp 2.8, Passive, 100 mg/ml in ddw, hydrogel soaked in ddw for only few seconds): TS# 4
Solubility in water [1]: soluble in water
Time after which the dye completely faded (tattoo life span) (human skin; Active With polyester): after 10 days.
Time after which the dye completely faded (tattoo life span) (human skin; Active Without polyester): after 7 days.
Toxicity (approved for human injection) (human): nontoxic
Effect of iontophoresis on skin penetration depth (swine ear skin): increased

Compound: CCN(Cc1cccc(S(=O)(=O)[O-])c1)c1ccc(C(=C2C=CC(=[N+](CC)Cc3cccc(S(=O)(=O)[O-])c3)C=C2)c2ccccc2S(=O)(=O)[O-])cc1.[Na+].[Na+] [Blue no. 1, FD&C Blue no. 1]
Solubility (Solubility of the dyes [2]; 2 mg/ml in water): Soluble
Solubility (Solubility of the dyes [2]; 6 mg/ml in water): Soluble
Solubility (Solubility of the dyes [2]; 10 mg/ml in water): Soluble
Solubility (Solubility of the dyes [2]; 20 mg/ml in water): Soluble
Toxicity (mice; SC in mice): 5.5 gm/kg
Current ([3]; 2 mg/ml in water, 3 V): None
Current ([3]; 6 mg/ml in water, 3 V): ˜0.3 mA
Current ([3]; 6 mg/ml in water, 3.92 V): 1 mA
Current ([3]; 10 mg/ml in water, 3 V): ˜0.4 mA
Current ([3]; 10 mg/ml in water, 3.69 V): 1 mA
Current ([3]; 20 mg/ml in water, 3 V): ˜0.4 mA
Current ([3]; 20 mg/ml in water, 3.69 V): 1 mA

Compound: Cc1ccc(Nc2ccc(Nc3ccc(C)cc3)c3c2C(=O)c2ccccc2C3=O)cc1 [Green no. 6, D&C Green no. 6]
Solubility (Solubility of the dyes [2]; 10 mg/ml in water): Insoluble
Toxicity, LD50 (mice): LD50 = 0.25 gm/kg
Solubility (Solubility of the dyes [4]; 2.5 mg/ml + 30% ethanol): Insoluble
Solubility (Solubility of the dyes [4]; 10 mg/ml + 30% ethanol): Insoluble

Effect of iontophoresis on skin penetration depth (swine ear skin): not affected
Compound: CC1(C)C(/C=C/C=C/C=C/C=C2\N(CCCCS(=O)(=O)O)c3ccc4ccccc4c3C2(C)C)=[N+](CCCCS(=O)(=O)[O-])c2ccc3ccccc3c21 [Green, Indocyanine green, reference compound]
Solubility in water [1]: soluble in water
Toxicity (approved for human injection) (human): nontoxic

Compound: COc1cc(S(=O)(=O)[O-])c(C)cc1N=Nc1c(O)ccc2cc(S(=O)(=O)[O-])ccc12.[Na+].[Na+] [Red no. 40, FD&C Red no. 40]
Toxicity, LD50 (rabbit): LD50 > 10 gm/kg,
Solubility (Solubility of the dyes [2]; 10 mg/ml in water): Soluble
Solubility (Solubility of the dyes [2]; 20 mg/ml in water): Soluble
Current ([3]; 10 mg/ml in water, 3 V): ˜0.3 mA
Current ([3]; 10 mg/ml in water, 4.15 V): 1 mA
Current ([3]; 20 mg/ml in water, 3 V): 1.1 mA

Compound: O=S(=O)([O-])c1ccc(N=Nc2c(O)ccc3cc(S(=O)(=O)[O-])ccc23)cc1.[Na+].[Na+] [Yellow no. 6, FD&C Yellow no. 6]
Toxicity, LD50 (mice): LD50 = 4.6 gm/kg
Current ([3]; 20 mg/ml in water, 3 V): 1.3 mA
